Data on 16 molecules can be found in ChEMBL document CHEMBL4152305, “Studies on 2-phenylquinoline Staphylococcus aureus NorA efflux pump inhibitors: New insights on the C-6 position” (Eur J Med Chem, 2018).

Molecules are shown by their SMILES. Values after ≈ are worked out from the molar mass of the structure shown. Active and inactive are the calls of the source. The rule behind the calls is not given here. Some results are limits rather than exact numbers.

Series [1] has as its system Staphylococcus aureus. In words: Growth inhibition of Staphylococcus aureus SA-1199B expressing wild type norA and co-expressing GrlA A116E mutant by microdilution method. The class given is organism-based. The settings on record: in vivo.
Series [2] has as its target T1, Quinolone resistance protein NorA (Staphylococcus aureus) (UniProt P0A0J7).
T1 sequence (whole entry): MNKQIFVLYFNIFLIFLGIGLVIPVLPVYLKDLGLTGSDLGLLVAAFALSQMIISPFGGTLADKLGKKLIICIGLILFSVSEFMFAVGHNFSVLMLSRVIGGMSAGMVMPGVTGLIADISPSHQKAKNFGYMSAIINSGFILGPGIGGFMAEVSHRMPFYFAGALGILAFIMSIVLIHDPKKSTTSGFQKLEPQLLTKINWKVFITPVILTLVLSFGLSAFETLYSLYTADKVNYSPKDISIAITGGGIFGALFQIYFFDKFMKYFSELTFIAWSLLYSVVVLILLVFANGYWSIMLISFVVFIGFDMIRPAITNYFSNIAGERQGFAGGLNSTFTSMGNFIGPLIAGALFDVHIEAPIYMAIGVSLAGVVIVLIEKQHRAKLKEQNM
The experiment in a line: Inhibition of Staphylococcus aureus SA-1199B NorA assessed as reduction in EtBr efflux at 50 uM measured over 5 mins by fluorescence assay relative to control.

The subject of series [3] is Staphylococcus aureus. The experiment in a line: Growth inhibition of Staphylococcus aureus ATCC 25923 by microdilution method. The class given is organism-based. The settings on record: in vivo.
Series [4] concerns Staphylococcus aureus. The experiment in a line: Growth inhibition of Staphylococcus aureus SA-1199 expressing wild type norA by microdilution method. The settings on record: in vivo. The class given is organism-based.
Series [5] concerns the target T1, Quinolone resistance protein NorA (Staphylococcus aureus). In words: Inhibition of Staphylococcus aureus SA-1199 norA assessed as potentiation of ciprofloxacin-induced antibacterial activity up to 100 ug/ml by checkerboard method.
Series [6] has as its target T2, Quinolone resistance protein NorA (Staphylococcus aureus, UniProt P0A0J7).
T2 sequence (P0A0J7 whole entry): T1 sequence (whole entry)
In words: Inhibition of Staphylococcus aureus SA-1199B NorA assessed as reduction in EtBr efflux measured over 5 mins by fluorescence assay.

For series [7], the system named is Staphylococcus aureus. In words: Growth inhibition of Staphylococcus aureus ATCC 25923 up to 100 ug/ml in presence of ciprofloxacin by checkerboard assay. Particulars: in vivo. The class given is organism-based.
Series [8] can be described thus: Cytotoxicity against human HepG2 cells assessed as reduction in cell number after 24 hrs by bioluminescence assay. The class given is cell-based.
For series [9], the target named is T1, Quinolone resistance protein NorA (Staphylococcus aureus). The experiment in a line: Potency index, ratio of reserpine IC50 to test compound IC50 for Staphylococcus aureus SA-1199B NorA assessed as reduction in EtBr efflux.
A short description of series [10]: Selectivity index, ratio of CC50 for human HepG2 cells to compound effect for inhibition of Staphylococcus aureus SA-1199B NorA assessed as potentiation of ciprofloxacin-induced antibacterial activity by measuring minimum potetntiation concentration causing 4 fold reduction in ciprofloxacin MIC. Particulars: read-out: Selectivity Index. The class given is toxicity.

Series [11] deals with T1, Quinolone resistance protein NorA (Staphylococcus aureus). The experiment in a line: Inhibition of Staphylococcus aureus SA-1199B NorA assessed as potentiation of ciprofloxacin-induced antibacterial activity by measuring minimum potetntiation concentration causing 4 fold reduction in ciprofloxacin MIC by ciprofloxacin assay.

In the case of `CCCOc1ccc(-c2cc(OCCN(CC)CC)c3cc(OCCN(CC)CC)ccc3n2)cc1`, the results for the MIC in series [1], in series [3] and in series [4] were greater than 202.6 µM, 100 µg/mL (≈ 203 µM) and greater than 100 µg/mL, respectively. In [2], the inhibition stood at 81.4%. Besides, the result in [5] was inactive. The IC50 in series [6] was determined as 10.6 µM. Also, the “growth inhibition (GI)” value in series [7] was “Non-Toxic”.

As to `O=C(O)c1cn(C2CC2)c2cc(N3CCNCC3)c(F)cc2c1=O` [CIPROFLOXACIN], the values for the MIC in [1], in series [3] and in series [4] were 10 µg/mL, 0.63 µg/mL (≈ 1.9 µM) and 0.63 µg/mL (≈ 1.9 µM), respectively.

Regarding `CCCOc1ccc(-c2cc(OCCN(CC)CC)c3cc(OCc4ccccc4)ccc3n2)cc1`, the inhibition in [2] came out at 91.1%. The MIC in series [3] and in series [4] was greater than 100 µg/mL each time. Also, in series [8], the CC50 at 24 h worked out at 12.3 µg/mL (≈ 25.3 µM). Moreover, the Ratio IC50 in [9] turned out to be 2. Also, the selectivity ratio in [10] came to 15.7. Also, the outcome in [5] was inactive. Further, the “growth inhibition (GI)” value in [7] is reported as “Non-Toxic”. Besides, the Activity in [11] came to 0.78 µg/mL.

With `CCCOc1ccc(-c2cc(OCCN(CC)CC)c3cc(OCCCN4CCOCC4)ccc3n2)cc1`, the MIC in series [1] was greater than 191.7 µM; in series [3], 100 µg/mL (≈ 192 µM); in series [4], greater than 100 µg/mL. In addition, the inhibition in series [2] came out at 91.1%. Moreover, the Ratio IC50 in [9] stood at 2. In addition, the outcome in [5] was inactive. In [6], the IC50 came out at 5 µM. Further, the “growth inhibition (GI)” value in series [7] was “Non-Toxic”. Further, the Activity in series [11] was found to be 12.5 µg/mL.

For `CCCOc1ccc(-c2cc(OCCN(CC)CC)c3ccccc3n2)cc1`, the CC50 at 24 h in series [8] is 21.6 µg/mL (≈ 57 µM). Also, in [10], the selectivity ratio came to 3.5. The IC50 in series [6] is 8.9 µM. In addition, in series [11], the Activity worked out at 6.25 µg/mL.

As to `CCCOc1ccc(-c2cc(OCCN(CC)CC)c3cc(OCCCN(C)C)ccc3n2)cc1`, the MIC in series [1] was greater than 208.5 µM; in series [3], 100 µg/mL (≈ 208 µM); in [4], greater than 100 µg/mL. In addition, the inhibition in series [2] was found to be 80.9%. In [5], the result was inactive. In addition, in series [6], the IC50 came out at 8.8 µM. For the same molecule, the “growth inhibition (GI)” value in series [7] is recorded as “Non-Toxic”.

For `CCCOc1ccc(-c2cc(OCCN3CCCCC3)c3cc(O)ccc3n2)cc1`, the MIC in series [1] stood at 61.5 µM; in [3], 25 µg/mL (≈ 61.5 µM); in series [4], 25 µg/mL (≈ 61.5 µM). Moreover, the inhibition in [2] was 87%. The Ratio IC50 in series [9] was determined as 2. The result in series [5] was inactive. The IC50 in series [6] is 3.3 µM. Besides, the “growth inhibition (GI)” value in series [7] is reported as “Non-Toxic”. In [11], the Activity is 6.25 µg/mL.

As for `CCCOc1ccc(-c2cc(OCCN3CCCCC3)c3cc(OCc4ccccc4)ccc3n2)cc1`, in series [2], the inhibition is 76.3%. The MIC in series [3] and in series [4] was 100 µg/mL (≈ 201 µM) in each case. For the same molecule, the CC50 at 24 h in series [8] stood at 33.8 µg/mL (≈ 68.1 µM). Also, in series [9], the Ratio IC50 came to 2. The selectivity ratio in [10] is 43.4. Besides, the outcome in series [5] was inactive. Besides, in [7], the “growth inhibition (GI)” value is “Non-Toxic”. Also, the Activity in [11] was determined as 0.78 µg/mL.

`CCCOc1ccc(-c2cc(OCCN3CCCCC3)c3cc(OCCCN4CCOCC4)ccc3n2)cc1`: the MIC in series [1] amounted to 93.7 µM; in series [3], 100 µg/mL (≈ 187 µM); in series [4] it was 50 µg/mL (≈ 93.7 µM). The inhibition in [2] stood at 93.2%. For the same molecule, the Ratio IC50 in [9] was 2. In addition, in [5], the result was inactive. In [6], the IC50 came to 4.4 µM. For the same molecule, the “growth inhibition (GI)” value in series [7] is listed as “Non-Toxic”. Further, the Activity in [11] was 6.25 µg/mL.

Take `COC(=O)[C@H]1[C@H]2C[C@@H]3c4[nH]c5cc(OC)ccc5c4CCN3C[C@H]2C[C@@H](OC(=O)c2cc(OC)c(OC)c(OC)c2)[C@@H]1OC` [RESERPINE]: the MIC was greater than 164 µM in series [1], greater than 100 µg/mL in [3] and greater than 100 µg/mL in series [4]. In addition, the IC50 in series [6] is 9.2 µM. Also, the Activity in series [11] is 1.56 µg/mL.

With `CCCOc1ccc(-c2cc(OCCN(CC)CC)c3cc(O)ccc3n2)cc1`, the MIC in [1] worked out at 126.7 µM; in series [3], 50 µg/mL (≈ 127 µM); in series [4] it was 50 µg/mL (≈ 127 µM). For the same molecule, in series [2], the inhibition amounted to 95%. For the same molecule, in [9], the Ratio IC50 is 2. In addition, the outcome in [5] was inactive. Moreover, the IC50 in series [6] worked out at 5.8 µM. In addition, the “growth inhibition (GI)” value in series [7] was “Non-Toxic”. In [11], the Activity came out at 1.56 µg/mL.

As to `CCCOc1ccc(-c2cc(OCCN3CCCCC3)c3cc(OCCN4CCCCC4)ccc3n2)cc1`, the MIC entry in series [3] and in series [4] was “Nd(Insoluble)” each time. Besides, the outcome in series [5] was inactive. Also, in series [7], the “growth inhibition (GI)” value was “Non-Toxic”.

Turning to `CCCOc1ccc(-c2cc(OCCN(CC)CC)c3cc(OCCN4CCCCC4)ccc3n2)cc1`, the MIC entry in series [3] and in series [4] was “Nd(Insoluble)” throughout. For the same molecule, in [5], the outcome was inactive. Moreover, the “growth inhibition (GI)” value in series [7] was “Non-Toxic”.

For the molecule `CCCOc1ccc(-c2cc(OCCN3CCCCC3)c3cc(OCCN(CC)CC)ccc3n2)cc1`, the figures for the MIC in series [1], in series [3] and in series [4] were 197.7 µM, 100 µg/mL (≈ 198 µM) and 100 µg/mL (≈ 198 µM), respectively. Further, in series [2], the inhibition turned out to be 91.4%. Moreover, in series [9], the Ratio IC50 came to 2. Also, the outcome in [5] was inactive. For the same molecule, in series [6], the IC50 worked out at 5.2 µM. Moreover, the “growth inhibition (GI)” value in series [7] is on record as “Non-Toxic”. Further, the Activity in series [11] came out at 25 µg/mL.

Turning to `CCCOc1ccc(-c2cc(OCCN3CCCCC3)c3cc(OCCCN(C)C)ccc3n2)cc1`, the values for the MIC in [1], in [3] and in [4] were 203.4 µM, 100 µg/mL (≈ 203 µM) and 100 µg/mL (≈ 203 µM), respectively. In addition, the inhibition in series [2] was determined as 92.5%. In addition, in series [5], the result was inactive. For the same molecule, in series [6], the IC50 came to 7.2 µM. In addition, the “growth inhibition (GI)” value in series [7] was “Non-Toxic”. The Activity in series [11] amounted to 6.25 µg/mL.

On to `CCCOc1ccc(-c2cc(OCCN3CCCCC3)c3ccccc3n2)cc1`, for which the CC50 at 24 h in [8] came out at 38.9 µg/mL (≈ 99.6 µM). Moreover, the selectivity ratio in [10] is 24.9. The IC50 in series [6] was 7.3 µM. The Activity in [11] turned out to be 1.56 µg/mL.
